Data set [1] can be described thus: Cytotoxicity against human HepG2 cells measured after 72 hrs by hoechst 33342 staining based imaging assay. Format: toxicity, cell-based.
Data set [2] relates to Plasmodium falciparum. Briefly: microbe, parasite or virus in culture. The note with it: W2, 72 h. Format: functional, organism-based.

For the molecule `CN(C(=O)c1cnc(-c2ccc(Cl)cc2)o1)c1ccc(Cl)cc1`, the CC50 at 72 h in data set [1] (read-out: CC50) and in data set [1] (read-out: pCC50 (converted)) was above 10 µM each time. Moreover, the EC50 in data set [2] (read-out: EC50) and in data set [2] (read-out: pEC50 (converted)) was above 10 µM in each case.
For `COc1ccc(N(C)C(=O)c2ncn(-c3ccc(C)cc3)n2)cc1`, the CC50 at 72 h in data set [1] (read-out: CC50) and in data set [1] (read-out: pCC50 (converted)) was above 10 µM throughout. Moreover, the EC50 was above 4.11 µM in data set [2] (read-out: EC50) and above 4.07 µM in data set [2] (read-out: pEC50 (converted)).
For the molecule `CN(C(=O)c1ncn(-c2ccc(Cl)cc2)n1)c1ccc(C(C)(C)C)cc1`, the CC50 at 72 h is above 1.76 µM in data set [1] (read-out: CC50) and above 1.78 µM in data set [1] (read-out: pCC50 (converted)). Moreover, the EC50 in data set [2] (read-out: EC50) was above 8.03 µM; in data set [2] (read-out: pEC50 (converted)), above 7.94 µM.
As to `Cc1cccc(N(C)C(=O)c2ncn(-c3ccc(Cl)cc3)n2)c1`, the CC50 at 72 h in data set [1] (read-out: CC50) and in data set [1] (read-out: pCC50 (converted)) was above 10 µM in each case. For the same molecule, the EC50 in data set [2] (read-out: EC50) was above 4.03 µM; in data set [2] (read-out: pEC50 (converted)), above 4.07 µM.
In the case of `CC(=O)c1ccc(NC(=O)c2ncn(-c3ccc(Cl)cc3)n2)cc1`, the CC50 at 72 h in data set [1] (read-out: CC50) and in data set [1] (read-out: pCC50 (converted)) was above 10 µM in each case. Further, the EC50 in data set [2] (read-out: EC50) and in data set [2] (read-out: pEC50 (converted)) was above 10 µM throughout.
As for `Cc1cccc(N(C)C(=O)c2ncn(-c3ccc(C(C)C)cc3)n2)c1`, the CC50 at 72 h in data set [1] (read-out: CC50) and in data set [1] (read-out: pCC50 (converted)) was above 10 µM in each case. The EC50 was above 3.33 µM in data set [2] (read-out: EC50) and above 3.31 µM in data set [2] (read-out: pEC50 (converted)).
As for `CN(C(=O)c1cnc(-c2ccc(Cl)cc2)[nH]1)c1ccc(Cl)cc1`, the CC50 at 72 h in data set [1] (read-out: CC50) and in data set [1] (read-out: pCC50 (converted)) was above 10 µM throughout. Also, the figures for the EC50 in data set [2] (read-out: EC50) and in data set [2] (read-out: pEC50 (converted)) were above 2.26 µM and above 2.24 µM, respectively.
With `CCc1ccc(-n2cnc(C(=O)N(C)c3cccc(C)c3)n2)cc1`, the CC50 at 72 h in data set [1] (read-out: CC50) and in data set [1] (read-out: pCC50 (converted)) was above 10 µM throughout. Moreover, the EC50 is above 4.26 µM in data set [2] (read-out: EC50) and above 4.27 µM in data set [2] (read-out: pEC50 (converted)).
`Cc1ccc(-n2cnc(C(=O)N(C)c3ccc(C)c(C)c3)n2)cc1`: the CC50 at 72 h in data set [1] (read-out: CC50) and in data set [1] (read-out: pCC50 (converted)) was above 10 µM each time. Moreover, the EC50 is above 6.93 µM in data set [2] (read-out: EC50) and above 6.92 µM in data set [2] (read-out: pEC50 (converted)).
As for `O=C(Nc1ccc(F)cc1)c1ncn(-c2ccc(Cl)cc2)n1`, the CC50 at 72 h in data set [1] (read-out: CC50) and in data set [1] (read-out: pCC50 (converted)) was above 10 µM each time. The EC50 in data set [2] (read-out: EC50) was above 5.88 µM; in data set [2] (read-out: pEC50 (converted)), above 5.89 µM.
As for `Cc1ccc(N(C)C(=O)c2ncn(-c3ccc(C(C)C)cc3)n2)cc1C`, the CC50 at 72 h in data set [1] (read-out: CC50) and in data set [1] (read-out: pCC50 (converted)) was above 10 µM each time. Besides, the EC50 was above 3.86 µM in data set [2] (read-out: EC50) and above 3.89 µM in data set [2] (read-out: pEC50 (converted)).
As for `CCc1ccc(N(C)C(=O)c2ncn(-c3ccc(Cl)cc3)n2)cc1`, the CC50 at 72 h in data set [1] (read-out: CC50) and in data set [1] (read-out: pCC50 (converted)) was above 10 µM in each case. Besides, the EC50 in data set [2] (read-out: EC50) was above 5.24 µM; in data set [2] (read-out: pEC50 (converted)), above 5.25 µM.
For `COc1ccc(-n2cnc(C(=O)N(C)c3ccc(Cl)cc3)n2)cc1`, the CC50 at 72 h in data set [1] (read-out: CC50) and in data set [1] (read-out: pCC50 (converted)) was above 10 µM each time. Also, the EC50 in data set [2] (read-out: EC50) is above 3.86 µM; in data set [2] (read-out: pEC50 (converted)), above 3.89 µM.
Turning to `Cc1ccc(C(=O)N(C)c2ncn(-c3ccc(C)cc3)n2)cc1`, the CC50 at 72 h in data set [1] (read-out: CC50) and in data set [1] (read-out: pCC50 (converted)) was above 10 µM in each case. The EC50 in data set [2] (read-out: EC50) was above 3.38 µM; in data set [2] (read-out: pEC50 (converted)), above 3.39 µM.
Take `O=C(Nc1ccc(Cl)c(Cl)c1)c1ncn(-c2ccc(Cl)cc2)n1`: the CC50 at 72 h in data set [1] (read-out: CC50) and in data set [1] (read-out: pCC50 (converted)) was above 10 µM in each case. Further, the EC50 in data set [2] (read-out: EC50) and in data set [2] (read-out: pEC50 (converted)) was above 10 µM in each case.
For the molecule `Cc1ccc(NC(=O)c2ncn(-c3ccc(Cl)cc3)n2)cc1C`, the CC50 at 72 h in data set [1] (read-out: CC50) and in data set [1] (read-out: pCC50 (converted)) was above 10 µM throughout. In addition, the EC50 was above 2.89 µM in data set [2] (read-out: EC50) and above 2.88 µM in data set [2] (read-out: pEC50 (converted)).
Turning to `COc1ccc(N(C)C(=O)c2ncn(-c3ccc(OC)cc3)n2)cc1`, the CC50 at 72 h in data set [1] (read-out: CC50) and in data set [1] (read-out: pCC50 (converted)) was above 10 µM throughout. Also, the EC50 in data set [2] (read-out: EC50) and in data set [2] (read-out: pEC50 (converted)) was above 10 µM throughout.
Regarding `CN(C(=O)c1cc(-c2ccc(Cl)cc2)ccn1)c1ccc(Cl)cc1`, the EC50 was 0.169 µM in data set [2] (read-out: EC50) and 0.17 µM in data set [2] (read-out: pEC50 (converted)).
In the case of `Cc1ccc(-n2cnc(C(=O)N(C)c3cccc(C)c3)n2)cc1`, the CC50 at 72 h in data set [1] (read-out: CC50) and in data set [1] (read-out: pCC50 (converted)) was above 10 µM in each case. Moreover, the EC50 in data set [2] (read-out: EC50) and in data set [2] (read-out: pEC50 (converted)) was above 2.82 µM throughout.
`Cc1ccc(-n2cnc(NC(=O)c3ccc(Cl)cc3)n2)cc1`: the CC50 at 72 h in data set [1] (read-out: CC50) and in data set [1] (read-out: pCC50 (converted)) was above 10 µM each time. The EC50 was above 2.99 µM in data set [2] (read-out: EC50) and above 3.02 µM in data set [2] (read-out: pEC50 (converted)).
For the molecule `Cc1ccc(N(C)C(=O)c2cn(-c3ccc(C)cc3)nn2)cc1`, the CC50 at 72 h in data set [1] (read-out: CC50) and in data set [1] (read-out: pCC50 (converted)) was above 10 µM each time. Besides, the EC50 in data set [2] (read-out: EC50) and in data set [2] (read-out: pEC50 (converted)) was above 10 µM each time.
On to `O=C(Nc1ccc(Cl)cc1)c1ncn(-c2ccc(Cl)cc2)n1`, for which the CC50 at 72 h in data set [1] (read-out: CC50) and in data set [1] (read-out: pCC50 (converted)) was above 10 µM throughout. Further, the EC50 in data set [2] (read-out: EC50) is above 6.44 µM; in data set [2] (read-out: pEC50 (converted)), above 6.46 µM.
As to `O=C(Nc1ccc(C(F)(F)F)cc1)c1ncn(-c2ccc(Cl)cc2)n1`, the CC50 at 72 h in data set [1] (read-out: CC50) and in data set [1] (read-out: pCC50 (converted)) was above 10 µM throughout. In addition, the results for the EC50 in data set [2] (read-out: EC50) and in data set [2] (read-out: pEC50 (converted)) were above 6.44 µM and above 6.46 µM, respectively.
